Assay results taken from PMC11302339, “A series of pyrimidine-based antifungals with anti-mold activity disrupt ER function in Aspergillus fumigatus” (Microbiology Spectrum, 2024).
In brackets after ≈: the same amount, converted by molar mass. Like-named read-outs stand apart in the source and are kept apart here. Marks after values point to notes of the source that are not given here.

How the values were obtained:
C. albicans = experiment: MIC testing (CLSI broth dilution); assay type: cell-based, Candida albicans
Method: (§1) MICs were determined using Clinical and Laboratory Standards Institute guidelines ([48], [49]). All yeasts were cultured overnight in 3 mL YPD at 30°C, then washed twice in sterile phosphate-buffered saline (PBS). Twofold serial dilutions of each drug were prepared in RMPI + MOPS, then 1 × 10^3 cells were added per well. For mold species, wells were inoculated with 1.25 × 10^3 conidia per well. Plates were incubated at 37°C for 24 (Candida spp. and S. cerevisiae), 48 (Aspergillus spp., M. circinelloides, S. apiospermum, and L. prolificans), or 72 (C. neoformans and F. oxysporum) hours. S. cerevisiae BY4743 MICs were tested in YPD due to nutritional requirements of this strain. Each assay was performed in technical duplicate in at least two independent experiments performed on different days.

A. fumigatus biofilms = experiment: A. fumigatus hyphal (biofilm) activity, resazurin; assay type: cell-based, Aspergillus fumigatus; settings: conidia germinated 14 hours
Method: To determine antifungal activity against A. fumigatus hyphae, a 96-well plate was inoculated with 1 × 10^3 conidia per well in 100 µL RPMI + MOPS with the edge wells filled with 200 µL sterile water to minimize edge effects. Plates were incubated at 37°C for 14 hours. A twofold dilution series of 1 or 7 was prepared in RPMI + MOPS at 2× concentration with 0.002% resazurin, then 100 µL of the drug was added to wells, and plates were incubated for an additional 24 hours. Fluorescence was measured with an excitation wavelength of 570 nm and an emission wavelength of 615 nm. Data are representative of two independent experiments performed in biological triplicate.

C. neoformans H99 = experiment: ER stress interactions on YPD plates; assay type: cell-based, Cryptococcus neoformans; settings: 4 µg/mL 1 on YPD
Method: (§2) To determine interactions of 1 with ER stress in Cryptococcus neoformans, an overnight culture of H99 was diluted to 1 × 10^6 CFU/mL, then three 10-fold dilutions were prepared. Three-microliter spots of each cell dilution were plated in triplicate on YPD containing DMSO or 4 µg/mL 1 in combination with DTT, brefeldin A, or tunicamycin. Plates were incubated at 37°C for 72 hours. Images are representative of two independent experiments performed in biological triplicate.

[1] = test system: A. fumigatus collagenase secretion; experiment: Detection of secreted collagenase by azocoll; assay type: cell-based, Aspergillus fumigatus
Method: 1 × 10^6 CEA10 conidia/mL were cultured in 25 mL liquid GMM for 18 hours, then mycelia were washed with sterile ddH2O and transferred to 10% FBS-MM and treated with DMSO or the indicated concentration of drugs. Cultures were incubated at 37°C, 250 rpm, for an additional 24 hours, then the supernatant and biomass were collected. One milliliter of supernatant was spun at top speed for 5 min. Azocoll of <50 mesh (Sigma, Cat # 194932) was washed in buffer (50 mM Tris, pH 7.5, 1 mM NaCl, and 0.01% sodium azide) then resuspended to 5 mg/mL. Fifteen microliters of culture supernatant was added to the 2 mL azocoll solution and incubated at 37°C with shaking at 300 rpm for 3 hours in the dark. Reactions were spun at maximum speed for 3 min; 200 µL of supernatant was then transferred to a 96-well plate; and Abs 520 was measured. Biomass was lyophilized, and absorbance readings were normalized to milligram tissue. Data represent the mean and SEM of biological triplicates with technical duplicates except for compounds 5 and 7, which are biological duplicates due to the limited availability of the drug and the required culture size for this assay.

C. neoformans ∆ire1 = experiment: Susceptibility of ∆ire1 mutant on YPD plates; assay type: cell-based, Cryptococcus neoformans; settings: YPD with 4 or 16 µg/mL 1, 30 °C, 72 hours
Method: as §2
Supplemental Figure 3. 1 interacts with ER stress in C. neoformans but activity is not dependent on Ire1. A) Serial dilutions of C. neoformans H99 on YPD with DMSO or 4 µg/mL 1 combined with ER stresses Brefeldin A (BfA), DTT, or Tunicamycin (Tun). Plates were incubated at 37 °C for 72 hours. Representative images of two independent experiments with three biological replicates each. B) Serial dilutions of C. neoformans H99 wild type and ∆ire1 mutant on YPD containing 4 µg/mL 1, 16 µg/mL 1 or DMSO incubated at 30 °C for 72 hours.
Representative images of two independent experiments with three biological replicates each.
(1 picture or pasted object on this page, not shown here)

[2] = Mouse microsome stability; assay type: in vitro ADME; settings: mouse microsomes, 0.5 mg/mL microsomes, NADPH cofactors, 37°C
Method: 1 (2 mM in DMSO) was incubated at 37°C with 0.5 mg/mL mouse microsomes (lot # 2110330) fraction and Phase I (NADPH regenerating system) cofactors for 0–120 min at a final concentration of 2 µM. Reactions were quenched with 0.5 mL (1:1) of methanol containing formic acid (FA) 0.2% and 100 ng/mL n-benzylbenzamide internal standard (IS; 0.1% FA and 50ng/mL IS final). Samples were vortexed for 30 s, incubated at room temperature for 10 min, and spun for 5 min at 2,200 rpm in a tabletop centrifuge. Supernatant (~0.9 mL) was then transferred to an Eppendorf tube and spun in a 4°C microfuge for 5 min at 13,200 rpm. Supernatant was transferred to an high-performance liquid chromatography plate with seal and samples then analyzed by a 4500 LC-MS/MS.

A. niger = experiment: MIC testing (CLSI broth dilution); assay type: cell-based, Aspergillus niger; settings: strain S007, clinical isolate; no clear well, growth reduced by ≥50% at MEC
Method: as §1

S. cerevisiae = experiment: MIC testing (broth dilution, YPD); assay type: cell-based; settings: Saccharomyces cerevisiae, 24 h
Method: as §1

sheep red blood cells = experiment: Hemolysis assay; assay type: cell-based; settings: 2 hours at RT
Method: Hemolysis assays were performed with defibrinated sheep’s blood (Lampire, Cat # 7239001). Blood was washed three times with PBS then resuspended to ~50% hematocrit in PBS. Drugs were diluted to generate a twofold dilution series in 200 µL PBS with equal DMSO concentration across the series, then red blood cells were added for a final concentration of 2% hematocrit. Cells were incubated at RT for 2 hours in a v-bottom microtiter plate; then, plates were spun down; and the supernatant was transferred to a flat-bottomed microtiter plate for absorbance measurement at 570 nm. Drugs were tested in technical triplicate in at least two independent assays performed on different lots of blood.

OC1CC(c2cc(N3CCC(CCc4ccccc4)CC3)ncn2)C1 (stereo not shown) [compound 1]
MIC (C. albicans; Candida albicans, strain SC5314, CLSI conditions, 24 h, read-out: MIC): 64 µg/mL (≈ 190 µM)
MIC (C. albicans; Candida albicans, strain not named, read-out: MIC): 64 µg/mL (≈ 190 µM)
MIC (C. albicans; strain TWO7241, azole-resistant clinical isolate, CLSI conditions): 64 µg/mL (≈ 190 µM)
MIC (C. albicans; strain TWO7243, azole-resistant clinical isolate, CLSI conditions): 64 µg/mL (≈ 190 µM)
IC50 (A. fumigatus biofilms; Aspergillus fumigatus, then treated 24 hours, read-out: IC50 of hyphal growth): 1.66 µg/mL (≈ 4.92 µM)
inhibition of hyphal growth (A. fumigatus biofilms; escalating doses 24 hours): dose-dependent inhibition of hyphal growth
interaction with tunicamycin (C. neoformans H99; 0.125 µg/mL tunicamycin): antagonistic
interaction with tunicamycin (C. neoformans H99; 0.25 µg/mL tunicamycin): additive
interaction with DTT (C. neoformans H99; 37°C, 72 hours): synergistic
interaction with brefeldin A (C. neoformans H99; 37°C, 72 hours): synergistic
collagenase secretion ([1]; 1 µg/mL, 24 hours in 10% FBS-MM): did not change collagenase secretion
collagenase secretion ([1]; 2, 4, 8 and 16 µg/mL, 24 hours in 10% FBS-MM, dose-dependent): significantly inhibited
collagenase secretion ([1]; treated with 1/2 MIC of each compound): inhibition of collagenase secretion was similar
susceptibility of ∆ire1 mutant vs wild type (C. neoformans ∆ire1): did not show increased susceptibility
half-life at 2 µM [2]: 1.25 h
Minimum effective concentration (MEC) (A. niger): 16^b µg/mL
MIC (S. cerevisiae): 8 µg/mL (≈ 23.7 µM)
LD50 (hemolysis) (sheep red blood cells; 2% hematocrit): 350 µg/mL
hemolysis of red blood cells (sheep red blood cells; up to 128 µg/mL): did not observe hemolysis
